Target: T1, recombinant autotaxin (Homo sapiens, UniProt Q13822)
T1 construct: made in house; host or cells: Hi5 insect cells (baculovirus)
Experiment: Autotaxin test (enzyme test), Amplex Red fluorescence with LPC substrate
Type: biochemical
Conditions: autotaxin inhibition (enzyme test); for remaining activity at 10 µM: 10 μM compound, read-out: % Control at 10 μM
Procedure, shortened: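 Purified recombinant autotaxin (baculovirus Hi5-expressed) pre-incubated with compound 30 min at 22° C, then LPC (final 75 μM) added and reacted 90 min at 37° C in Tris pH 8 buffer with CaCl2. Choline released was coupled via alkaline phosphatase, choline oxidase and peroxidase to Amplex Red; resorufin fluorescence read in kinetic mode (ex 485/em 612 nm).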

SMILES	remaining activity at 10 µM [%]	IC50 [µM]
CC(C)(C)[C@H](O)C(=O)N1CCN2C(=O)c3cc(-c4ccc(Cl)cc4F)ccc3NC(=O)[C@H]2C1 [Compound A96, (R)-7-(4-Chloro-2-fluorophenyl)-2-((S)-2-hydroxy-3,3-dimethylbutyryl)-1,3,4,11a-tetrahydro-2H,10H-2,4a,10-triazadibenzo[a,d]cycloheptene-5,11-dione]	1	0.1 to 1
CC(C)(C)CC(=O)N1CCN2C(=O)c3cc(-c4ccccc4)ccc3NC(=O)C2C1 (centres unmarked) [Compound A131, 2-(3,3-Dimethylbutyryl)-7-phenyl-1,3,4,11a-tetrahydro-2H,10H-2,4a,10-triaza-dibenzo[a,d]cycloheptene-5,11-dione]	14	> 1
CC(C)(C)CC(=O)N1CCN2C(=O)c3cc(-c4ccc(F)cc4F)ccc3NC(=O)C2C1 (centres unmarked) [Compound A91, 7-(2,4-Difluorophenyl)-2-(3,3-dimethylbutyryl)-1,3,4,11a-tetrahydro-2H,10H-2,4a,10-triaza-dibenzo[a,d]cycloheptene-5,11-dione]	-6	> 1
CC1(C)SCNC1C(=O)N1CCN2C(=O)c3cc(-c4ccc(Cl)cc4)ccc3NC(=O)C2C1 (centres unmarked) [Compound A141, 7-(4-Chlorophenyl)-2-(5,5-dimethylthiazolidine-4-carbonyl)-1,3,4,11a-tetrahydro-2H,10H-2,4a,10-triazadibenzo[a,d]cycloheptene-5,11-dione]	-21	0.1 to 1
O=C1Nc2ccc(-c3ccc4c(c3)OCO4)cc2C(=O)N2CCN(C(=O)[C@@H]3CSCN3)C[C@H]12 [Compound B9]	74	
O=C1Nc2ccc(-c3ccc(Cl)cc3)cc2C(=O)N2CCN(C(=O)c3cccs3)C[C@H]12 [Compound B20]	71	
CC(C)(C)CC(=O)N1CCN2C(=O)c3cc(-c4ccc(Cl)c(Cl)c4)ccc3NC(=O)C2C1 (centres unmarked) [Compound A104, 7-(3,4-Dichlorophenyl)-2-(3,3-dimethylbutyryl)-1,3,4,11a-tetrahydro-2H,10H-2,4a,10-triaza-dibenzo[a,d]cycloheptene-5,11-dione]	-13	0.1 to 1
CC(C)(C)CC(=O)N1CCN2Cc3cc(-c4ccccc4F)ccc3NCC2C1 (centres unmarked) [Compound 25, 1-[7-(2-fluorophenyl)-3,4,5,10,11,11a-hexahydro-1H-2,4-a,10-triazadibenzo[a,d]cyclohepten-2-yl]-3,3-dimethylbutan-1-one]	53	> 1
CO[C@H](C(=O)N1CCN2C(=O)c3cc(-c4ccc(Cl)cc4)ccc3NC(=O)C2C1)C(C)(C)C (stereo partly drawn) [Compound A138, 7-(4-Chlorophenyl)-2-((S)-2-methoxy-3,3-dimethyl-butyryl)-1,3,4,11a-tetrahydro-2H,10H-2,4a,10-triazadibenzo[a,d]cycloheptene-5,11-dione]	-21	0.1 to 1
CN1CCC(N2C(=O)C3CN(C(=O)CC(C)(C)C)CCN3C(=O)c3cc(-c4ccc(Cl)cc4F)ccc32)CC1 (centres unmarked) [Compound A166]	10	> 1
CC(C)(C)CC(=O)N1CCN2C(=O)c3cc(-c4cccc(C(F)(F)F)c4)ccc3NC(=O)C2C1 (centres unmarked) [Compound A87, 2-(3,3-Dimethylbutyryl)-7-(3-trifluoromethylphenyl)-1,3,4,11a-tetrahydro-2H,10H-2,4a,10-triaza-dibenzo[a,d]cycloheptene-5,11-dione]	74	> 1
O=C1Nc2ccc(-c3ccc(Cl)cc3)cc2C(=O)N2CCN(C(=O)[C@H](O)c3ccccc3)CC12 (stereo partly drawn) [Compound A43, 7-(4-Chlorophenyl)-2-((R)-2-hydroxy-2-phenylacetyl)-1,3,4,11a-tetrahydro-2H,10H-2,4a,10-triazadibenzo[a,d]cycloheptene-5,11-dione]	31	> 1
O=C1Nc2ccc(-c3ccc(Cl)cc3F)cc2C(=O)N2CCN(C(=O)[C@@H]3CCCN3C3CCNCC3)CC12 (stereo partly drawn) [Compound A99, 7-(4-Chloro-2-fluorophenyl)-2-((S)-1-piperidin-4-yl-pyrrolidine-2-carbonyl)-1,3,4,11a-tetrahydro-2H,10H-2,4a,10-triazadibenzo[a,d]cycloheptene-5,11-dione]	19	> 1
CC(C)(C)CC(=O)N1CCN2C(=O)c3cc(-c4ccc(C#N)cc4)ccc3NC(=O)C2C1 (centres unmarked) [Compound A132, 4-[2-(3,3-Dimethylbutyryl)-5,11-dioxo-1,2,3,4,5,10,11,11a-octahydro-2,4a,10-triaza-dibenzo[a,d]cyclohepten-7-yl]benzonitrile]	84	
O=C1Nc2ccc(-c3ccc4c(c3)OCO4)cc2C(=O)N2CCN(C(=O)c3cccnc3)C[C@H]12 [Compound B12]	84	
O=C1Nc2ccc(-c3ccc(Cl)c(F)c3)cc2C(=O)N2CCN(C(=O)[C@@H]3CCCN3C3CCNCC3)C[C@H]12 [Compound A102, (R)-7-(4-Chloro-3-fluorophenyl)-2-((S)-1-piperidin-4-ylpyrrolidine-2-carbonyl)-1,3,4,11a-tetrahydro-2H,10H-2,4a,10-triazadibenzo[a,d]cycloheptene-5,11-dione]	7	0.1 to 1

SMILES	remaining activity at 10 µM [%]	IC50 [µM]
COc1ccc(-c2ccc3c(c2)C(=O)N2CCN(C(=O)[C@@H](O)c4ccccc4)C[C@@H]2C(=O)N3)cc1 [Compound B2]	84	
CC(C)(C)CC(=O)N1CCN2C(=O)c3cc(-c4ccc(C(F)(F)F)cc4F)ccc3NC(=O)C2C1 (centres unmarked) [Compound A84, 2-(3,3-Dimethylbutyryl)-7-(2-fluoro-4-trifluoromethyl-phenyl)-1,3,4,11a-tetrahydro-2H,10H-2,4a,10-triazadibenzo[a,d]cycloheptene-5,11-dione]	29	
CC(C)(C)CC(=O)N1CCN2C(=O)c3cc(OC(F)(F)F)ccc3NC(=O)C2C1 (centres unmarked) [Compound A133, 2-(3,3-Dimethylbutyryl)-7-trifluoromethoxy-1,3,4,11a-tetrahydro-2H,10H-2,4a,10-triaza-dibenzo[a,d]cycloheptene-5,11-dione]	27	> 1
O=C1Nc2ccc(-c3ccc(Cl)cc3)cc2C(=O)N2CCN(C(=O)Nc3ccccc3)CC12 (centres unmarked) [Compound A48, N-Phenyl-7-(4-chlorophenyl)-5,11-dioxo-3,4,5,10,11,11a-hexahydro-1H-2,4a,10-triaza-dibenzo[a,d]cycloheptene-2-carboxamide]	20	> 1
CCCc1nn(C)cc1C(=O)N1CCN2C(=O)c3cc(-c4ccc(Cl)cc4)ccc3NC(=O)C2C1 (centres unmarked) [Compound A23, 7-(4-Chlorophenyl)-2-(1-methyl-3-propyl-1H-pyrazole-4-carbonyl)-1,3,4,11a-tetrahydro-2H,10H-2,4a,10-triazadibenzo[a,d]cycloheptene-5,11-dione]	54	> 1
CC(C)(C)CC(=O)N1CCN2C(=O)c3cc(-c4ccc(Cl)cc4)ccc3NC(=O)C2C1 (centres unmarked) [Compound B26]		0.1 to 1
Cn1cc(CCC(=O)N2CCN3C(=O)c4cc(-c5ccc(Cl)cc5F)ccc4NC(=O)[C@@H]3C2)cn1 [Compound A98, (S)-7-(4-Chloro-2-fIuorophenyl)-2-[3-(1-methyl-1H-pyrazol-4-yl)propionyl]-1,3,4,11a-tetrahydro-2H,10H-2,4a,10-triazadibenzo[a,d]cycloheptene-5,11-dione]	90	> 1
O=C(C(=O)N1CCN2C(=O)c3cc(-c4ccc(Cl)cc4)ccc3NC(=O)C2C1)c1ccccc1 (centres unmarked) [Compound A35, 7-(4-Chlorophenyl)-2-(2-oxo-2-phenylacetyl)-1,3,4,11a-tetrahydro-2H,10H-2,4a,10-triaza-dibenzo[a,d]cycloheptene-5,11-dione]	11	> 1
O=C1Nc2ccc(-c3ccco3)cc2C(=O)N2CCN(C(=O)C3CC3)C[C@H]12 [Compound B16]	82	
CN1CCN(C(=O)CN2C(=O)C3CN(C(=O)CC(C)(C)C)CCN3C(=O)c3cc(-c4ccc(Cl)cc4F)ccc32)CC1 (centres unmarked) [Compound A144]	11	> 1
Cc1ccc(-c2ccc3c(c2)C(=O)N2CCN(C(=O)CC(C)(C)C)CC2C(=O)N3)cc1C (centres unmarked) [Compound A90, 2-(3,3-Dimethylbutyryl)-7-(3,4-dimethylphenyl)-1,3,4,11a-tetrahydro-2H,10H-2,4a,10-triaza-dibenzo[a,d]cycloheptene-5,11-dione]	24	> 1
O=C1Nc2ccc(-c3cccs3)cc2C(=O)N2CCN(C(=O)[C@@H](O)c3ccccc3)C[C@H]12 [Compound A3, (R)-2-((S)-2-Hydroxy-2-phenylacetyl)-7-thiophen-2-yl-1,3,4,11a-tetrahydro-2H,10H-2,4a,10-triaza-dibenzo[a,d]cycloheptene-5,11-dione]	86	
O=C1Nc2ccc(-c3ccc(Cl)cc3)cc2C(=O)N2CCN(C(=O)[C@@H]3CCCN3)CC12 (stereo partly drawn) [Compound A114, 7-(4-Chlorophenyl)-2-((S)-pyrrolidine-2-carbonyl)-1,3,4,11a-tetrahydro-2H,10H-2,4a,10-triaza-dibenzo[a,d]cycloheptene-5,11-dione]	28	> 1
CC(C)(C)CC(=O)N1CCN2C(=O)c3cc(-c4ccc(Cl)cc4F)ccc3NC(=O)C2C1 (centres unmarked) [Compound 10, 7-(4-chloro-2-fluorophenyl)-2-(3,3-dimethylbutyryl)-1,3,4,11a-tetrahydro-2H,10H-2,4a,10-triazadibenzo[a,d]cycloheptene-5,11-dione]	1	0.1 to 1
CC(C)(C)[C@H](N)C(=O)N1CCN2C(=O)c3cc(-c4ccc(Cl)cc4F)ccc3NC(=O)C2C1 (stereo partly drawn) [Compound A61, 2-((S)-2-Amino-3,3-dimethylbutyryl)-7-(4-chloro-2-fluorophenyl)-1,3,4,11a-tetrahydro-2H,10H-2,4a,10-triazadibenzo[a,d]cycloheptene-5,11-dione]	-11	> 1
